Measured values: article PMC12703733, “Probing Guanidino Pendant or Bridged Groups in Cyclic Antimicrobial Peptides Derived from Temporin L: A Strategy to Improve Efficacy against Gram-Negative Bacteria” (Journal of Medicinal Chemistry, 2025)
Like-named read-outs stand apart in the source and are kept apart here. Bridge positions count the residues as written; N and C are the ends. Square brackets hold non-standard residues; d marks the D form. Peptide text beside a SMILES is read from it. * marks the point of attachment. Propanoyl(3-guanidino) = N=C(N)NCCC(=O)*; X1 = N=C(N)N[C@@H](Cc1ccccc1)C(=O)*

How the values were obtained:
A. baumannii ATCC 19606 = experiment: microbe, parasite or virus in culture; format: cell-based
Procedure: (§1) Bacterial strains used in this study were the Gram-positive S. aureus ATCC 25923, S. epidermidis ATCC 12228, B. megaterium BM11, S. [NT] 27591, E. faecalis ATCC 29212 and the Gram-negative E. coli ATCC 25922, P. aeruginosa ATCC 27853, A. baumannii ATCC 19606, E. coli D21 and P. aeruginosa PAO1. […] Bacterial cells in the mid log phase were diluted in Muller Hinton (MH) at a concentration of 2 × 10^6 cell/mL. […] Ciprofloxacin was used as antibiotic control. The plate was then incubated at 37 °C. MICs were obtained from three identical readings of four independent experiments.

B. megaterium BM11 = experiment: microbe, parasite or virus in culture; format: cell-based
Procedure: as §1

E. coli ATCC 25922 = experiment: microbe, parasite or virus in culture; format: cell-based
Procedure: as §1

E. coli D21 = experiment: microbe, parasite or virus in culture; format: cell-based
Procedure: as §1

E. faecalis ATCC 29212 = experiment: microbe, parasite or virus in culture; format: cell-based
Procedure: as §1

P. aeruginosa ATCC 27853 = experiment: microbe, parasite or virus in culture; format: cell-based
Procedure: as §1

P. aeruginosa PAO1 = experiment: microbe, parasite or virus in culture; format: cell-based
Procedure: as §1

S. agalactiae ATCC 27591 = experiment: microbe, parasite or virus in culture; format: cell-based
Procedure: as §1

S. aureus ATCC 25923 = experiment: microbe, parasite or virus in culture; format: cell-based
Procedure: as §1

[1] = system: S. epidermidis ATCC 12228; experiment: microbe, parasite or virus in culture; format: cell-based
Procedure: as §1

circular dichroism = conditions: water; pH ns; 25 °C; 150 uM
[2] = format: cell-based, human; conditions: human; for viability at 2 h, 3.12 µM / viability at 2 h, 6.25 µM / viability at 2 h, 12.5 µM / viability at 2 h, 25 µM / viability at 2 h, 50 µM / viability at 2 h, 100 µM / viability at 24 h, 3.12 µM / viability at 24 h, 6.25 µM / viability at 24 h, 12.5 µM / viability at 24 h, 25 µM / viability at 24 h, 50 µM / viability at 24 h, 100 µM: Cell viability (%)
Procedure: (§2) For the evaluation of peptides’ cytotoxicity, the human immortalized keratinocytes (HaCaT cells), purchased from AddexBio (San Diego, CA, USA), and BEAS-2B were used. HaCaT cells were cultured in Dulbecco’s modified Eagle’s medium supplemented with 4 mM glutamine (DMEM), 10% heat-inactivated fetal bovine serum (FBS), and 0.1 mg/mL of penicillin and streptomycin, at 37 °C and 5% CO2. BEAS-2B cells were cultured in RPMI, supplemented with 2 mM glutamine (DMEM), 10% heat-inactivated fetal bovine serum (FBS), 1 mM sodium pyruvate, and 0.1 mg/mL of penicillin and streptomycin, at 37 °C and 5% CO2. Cytotoxicity was tested in vitro using a colorimetric assay that relies on the intracellular reduction of the yellow 3-(4,5-dimethylthiazol-2-yl)-2,5-diphenyltetrazolium bromide salt (MTT) by mitochondrial dehydrogenases of metabolically active cells in formazan crystals (purple). About 4 × 10^4 HaCaT and BEAS-2B cells, suspended in DMEM supplemented with 2% FBS, were plated in triplicate wells of a 96-well microtiter plate. The plate was incubated overnight at 37 °C and 5% CO2. Then, the cells were treated with different concentrations of the peptide (from 100 to 3.12 μM) in a fresh serum-free medium for 2 h and for a longer time (24 h). Following peptide treatment, the medium was removed, and MTT (0.5 mg/mL) solution in Hank’s buffer (136 mM NaCl, 4.2 mM Na2HPO4, 4.4 mM KH2PO4, 5.4 mM KCl, 4.1 mM NaHCO3, pH 7.2, supplemented with 20 mM D-glucose) was added to each well of the plate, that was then incubated for 4 h at 37 °C and 5% CO2. The purple formazan crystals were dissolved using acidified 2-propanol and a microplate reader (Infinite M200; Tecan, Salzburg, Austria) was used to measure the absorbance of each well at 570 nm. The percentage of cell viability was calculated compared to the control, which consisted of cells without any peptide treatment (corresponding to 100% viability) and all data represent the mean of three independent experiments ± SEM.

[3] = system: human keratinocytes (HaCaT cells); format: cell-based
Procedure: as §2

| Compound | helicity (circular dichroism) [%] | MIC (A. baumannii ATCC 19606; ATCC 19606) [µM] | MIC (B. megaterium BM11; BM11) [µM] | MIC (E. coli ATCC 25922; ATCC 25922) [µM] | MIC (E. coli D21; D21) [µM] | MIC (E. faecalis ATCC 29212; ATCC 29212) [µM] | MIC (P. aeruginosa ATCC 27853; ATCC 27853) [µM] | MIC (S. agalactiae ATCC 27591; ATCC 27591) [µM] | MIC (S. aureus ATCC 25923; ATCC 25923) [µM] | MIC ([1]; ATCC 12228) [µM] | CC50 at 24 h [2] [µM] | viability at 2 h, 3.12 µM [2] [%] | viability at 2 h, 6.25 µM [2] [%] | viability at 2 h, 12.5 µM [2] [%] | viability at 2 h, 25 µM [2] [%] | viability at 2 h, 50 µM [2] [%] | viability at 2 h, 100 µM [2] [%] | viability at 24 h, 3.12 µM [2] [%] | viability at 24 h, 6.25 µM [2] [%] | viability at 24 h, 12.5 µM [2] [%] | also measured |
| --- | --- | --- | --- | --- | --- | --- | --- | --- | --- | --- | --- | --- | --- | --- | --- | --- | --- | --- | --- | --- | --- |
| O=C(O)c1cn(C2CC2)c2cc(N3CCNCC3)c(F)cc2c1=O [Ciprofloxacin, reference compound] | – | – | – | – | – | – | – | – | – | – | – | – | – | – | – | – | – | – | – | – | MIC (A. baumannii ATCC 19606; Acinetobacter baumannii, ATCC19606, A. baumannii ATCC 19606, antibiotic control, read-out: MIC): 1 µg/mL; MIC (B. megaterium BM11; Priestia megaterium, B. megaterium BM11, antibiotic control, read-out: MIC): 0.12 µg/mL; MIC (E. coli ATCC 25922; Escherichia coli, ATCC25922, E. coli ATCC 25922, antibiotic control, read-out: MIC): 0.01 µg/mL; MIC (E. coli D21; Escherichia coli, E. coli D21, antibiotic control, read-out: MIC): 0.01 µg/mL; MIC (E. faecalis ATCC 29212; Enterococcus faecalis, ATCC29212, E. faecalis ATCC 29212, antibiotic control, read-out: MIC): 0.5 µg/mL; MIC (P. aeruginosa ATCC 27853; Pseudomonas aeruginosa, ATCC27853, P. aeruginosa ATCC 27853, antibiotic control, read-out: MIC): 0.5 µg/mL; MIC (P. aeruginosa PAO1; Pseudomonas aeruginosa, P. aeruginosa PAO1, antibiotic control, read-out: MIC): 0.12 µg/mL; MIC (S. agalactiae ATCC 27591; Streptococcus agalactiae, ATCC27591, S. agalactiae ATCC 27591, antibiotic control, read-out: MIC): 0.5 µg/mL; MIC (S. aureus ATCC 25923; Staphylococcus aureus, ATCC25923, S. aureus ATCC 25923, antibiotic control, read-out: MIC): 0.5 µg/mL; MIC ([1]; Staphylococcus epidermidis, ATCC12228, S. epidermidis ATCC 12228, antibiotic control, read-out: MIC): 0.25 µg/mL |
| CC[C@H](C)[C@H](NC(=O)[C@H](CCCNC(=N)N)NC(=O)[C@H]1CCC(=O)NCCCC[C@H](NC(=O)[C@H](Cc2ccccc2)NC(=O)[C@H](Cc2c[nH]c3ccccc23)NC(=O)[C@@H]2CCCN2C(=O)[C@@H](NC(=O)[C@H](Cc2ccccc2)NC(=N)N)C(C)C)C(=O)N[C@@H](CCCCN)C(=O)N[C@@H](Cc2ccccc2)C(=O)N[C@H](CC(C)C)C(=O)N1)C(=O)N[C@@H](CC(C)C)C(N)=O [Peptide 3, guanidino-FVPWF[KKFle]RIL] (X1-VPWFKKF[dL][dE]RIL-NH2; lactam 5-9) | 1 | 3.12 | 0.78 | 6.25 | 6.25 | 25 | 100 | 3.12 | 6.25 | 3.12 | 38.6 | 126 | 137 | 125 | 104 | 52 | 5 | 93 ± 9 | 105 ± 2 | 107 ± 8 | MIC (P. aeruginosa PAO1; PAO1): 50 µM; viability at 24 h, 25 µM [2]: 86 ± 5%; viability at 24 h, 50 µM [2]: 29 ± 2%; viability at 24 h, 100 µM [2]: 4 ± 1% |
| CC[C@H](C)[C@H](NC(=O)[C@H](CCCNC(=N)N)NC(=O)[C@H]1CCC(=O)NCCCC[C@H](NC(=O)[C@H](Cc2ccccc2)NC(=O)[C@H](Cc2c[nH]c3ccccc23)NC(=O)[C@@H]2CCCN2C(=O)[C@@H](NC(=O)[C@H](Cc2ccccc2)NC(=O)CCNC(=N)N)C(C)C)C(=O)N[C@@H](CCCCN)C(=O)N[C@@H](Cc2ccccc2)C(=O)N[C@H](CC(C)C)C(=O)N1)C(=O)N[C@@H](CC(C)C)C(N)=O [Peptide 4, guanidino-βAla-FVPWF[KKFle]RIL] ({Propanoyl(3-guanidino)}-FVPWFKKF[dL][dE]RIL-NH2; lactam 6-10) | 12 | 3.12 | 0.78 | 3.12 | 6.25 | 6.25 | 25 | 1.56 | 3.12 | 1.56 | 19.4 | 100 | 100 | 100 | 47 | 7 | 8 | 98 ± 1 | 93 ± 2 | 88 ± 4 | MIC (P. aeruginosa PAO1; PAO1): 25 µM; viability at 24 h, 25 µM [2]: 21 ± 3%; viability at 24 h, 50 µM [2]: 0%; viability at 24 h, 100 µM [2]: 0% |
| CC[C@H](C)[C@H](NC(=O)[C@H](CCCNC(=N)N)NC(=O)[C@@H]1CCCNC(=N)NCCC[C@H](NC(=O)[C@H](Cc2ccccc2)NC(=O)[C@H](Cc2c[nH]c3ccccc23)NC(=O)[C@@H]2CCCN2C(=O)[C@@H](NC(=O)[C@@H](N)Cc2ccccc2)C(C)C)C(=O)N[C@@H](CCCCN)C(=O)N[C@@H](Cc2ccccc2)C(=O)N[C@H](CC(C)C)C(=O)N1)C(=O)N[C@@H](CC(C)C)C(N)=O [Peptide 13, FVPWF{OrnKFlOrn}RIL] | 10 | 1.56 | 0.39 | 6.25 | 6.25 | 6.25 | 50 | 1.56 | 6.25 | 1.56 | 19.7 | 107 | 104 | 76 | 31 | 7 | 2 | 103 ± 2 | 103 ± 3 | 97 ± 2 | viability at 24 h, 25 µM [2]: 22 ± 2%; viability at 24 h, 50 µM [2]: 2 ± 1%; viability at 24 h, 100 µM [2]: 3 ± 1%; cytotoxicity (in words) [3]: Low cytotoxicity (up to 25 μM) |
